As a reminder, the logP is the decadic logarithm of the partition coefficient of the neutral form, usually between octanol and water. Low readings indicate a more hydrophilic compound, high ones a more lipophilic compound. For orientation: pIC50 means −log10 of the IC50, conventionally taken in molar units. The pKi is the negative decadic logarithm of the Ki, by convention in mol/L.

The nature of series [1]: Partition coefficient (logP). The class given is physicochemical. The conditions noted are these: octanol/water.
The target in series [2] is GABA-A receptor; anion channel. Briefly: In vitro displacement of [11C]Flumazenil from (CBR) central GABA-A benzodiazepine receptor of rat brain. (In general: In a radioligand displacement assay an active substance lowers the binding of a labelled ligand.)
Another series addresses Translocator protein (Rattus norvegicus, UniProt P16257). Briefly: In vitro binding affinity for PBR (peripheral benzodiazepine receptor) in rat brain. Format: tissue-based.

pIC50, pKi: −log10 of the molar value.

Chain of Translocator protein (P16257 whole entry, looked up): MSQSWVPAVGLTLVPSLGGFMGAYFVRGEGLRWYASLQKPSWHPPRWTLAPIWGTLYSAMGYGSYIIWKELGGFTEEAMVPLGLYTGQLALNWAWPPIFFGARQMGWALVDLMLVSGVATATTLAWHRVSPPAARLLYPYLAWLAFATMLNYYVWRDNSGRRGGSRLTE

For `COc1ccc(OCF)c(CN(C(C)=O)c2cc(F)ccc2Oc2ccccc2)c1`, in series [1], the log partition coefficient (logP) is 3.7. The molecule also had a pIC50 in series [2] of less than 5.00.
As to `CC[C@@H](C)N(C)C(=O)c1cc2ccccc2c(-c2ccccc2Cl)n1` [PK-11195], in series [2], the pIC50 was less than 5.00.
`COc1ccc(OC)c(CN(C(C)=O)c2cc(F)ccc2Oc2ccccc2)c1` had a logP in series [1] of 3.65. The molecule also gave a negative logarithm of the IC50 (pIC50) in series [2] of less than 5.00. This molecule also had a negative-log Ki (pKi) at Translocator protein of 10.37.
Consider `COc1ccc(OCCF)c(CN(C(C)=O)c2cc(F)ccc2Oc2ccccc2)c1`, for which the logP in series [1] was determined as 3.81. The molecule further gave a pIC50 in series [2] of less than 5.00.

(Values after ChEMBL document CHEMBL1136260, “[18F]FMDAA1106 and [18F]FEDAA1106: two positron-emitter labeled ligands for peripheral benzodiazepine receptor (PBR)” (Bioorg Med Chem Lett, 2003).)
